Several values for one entry are separate records, joined by “and”; a condition that tells them apart may be missing. Identical values can stand only once. Counter-ions that a name gives are not always drawn. Like-named read-outs stand apart in the source and are kept apart here.
Tested on: dogs
[1] = average of 6 dogs, pH 4, conc. 10 mg/ml, dose 50 μg/kg, both eyes, fasted
[2] = average of 6 dogs, pH 4, conc. 40 mg/ml, dose 100 μg/kg, right eye, fed
[3] = individual dogs 1-6, pH 4, conc. 10 mg/ml, dose 50 μg/kg, both eyes, fasted, hydrochloride
[4] = individual dogs 1-6, pH 4, conc. 40 mg/ml, dose 100 μg/kg, right eye, fed, hydrochloride
[5] = average of 6 dogs, pH 10, conc. 5 mg/ml, dose 30 μg/kg, both eyes
[6] = individual dogs 1-6, pH 10, conc. 5 mg/ml, dose 30 μg/kg, both eyes

Method: Aqueous eye drop solution comprising ropinirole hydrochloride (10 mg/ml or 40 mg/ml, pH 4) was administered into the eyes of six test dogs with doses of 50 μg/kg and 100 μg/kg for induction of emesis.

Compound: CCCN(CCC)CCc1cccc2c1CC(=O)N2 [Ropinirole HCl, Ropinirole hydrochloride]
- Number of vomits [1]: 3.5
- Onset of the first vomit (average induction time for emesis) [1]: 6.7 min
- The last vomit (vomiting ended on the average) [1]: 20.5 min
- Number of vomits [2]: 2.3
- Onset of the first vomit (average induction time for emesis) [2]: 4.8 min
- The last vomit (vomiting ended on the average) [2]: 12.3 min
- Time at which vomiting ends, from the administration (eye drop composition, general statement (typically)): ≤ 20 min
- Onset of emesis and tolerability when administered to the eye of the animal (general statement of findings): consistent and rapid onset of emesis without producing unnecessarily prolonged emesis, ocular discomfort or significant local irritation
- Number of vomits [3]: 3 (4×) and 2 and 7
- Onset of the first vomit [3]: 7 min and 6 min (3×) and 4 min and 11 min
- The last vomit [3]: 21 min and 20 min (2×) and 14 min and 12 min and 36 min
- Number of vomits [4]: 2 (3×) and 1 and 4 and 3
- Onset of the first vomit [4]: 6 min (2×) and 2 min and 7 min and 5 min and 3 min
- The last vomit [4]: 9 min and 10 min and 7 min and 15 min and 20 min (2×)
- Dogs vomiting / dogs treated (pH 4, conc. 10 mg/ml, dose 50 μg/kg, both eyes, fasted): Average 6/6
- Dogs vomiting / dogs treated (pH 4, conc. 40 mg/ml, dose 100 μg/kg, right eye, fed): Average 6/6

Compound: CCCN[C@H]1CCc2nc(N)sc2C1 [Pramipexole]
- Number of vomits [5]: 3.3
- Onset of the first vomit (average induction time for emesis) [5]: 4.5 min
- The last vomit (vomiting ended on the average) [5]: 31.3 min
- Prolonged emesis or irritation (eye drop solution 5 mg/ml, pH 10, dose 30 μg/kg, six dogs): No prolonged emesis or significant irritation
- Number of vomits [6]: 6 (2×) and 1 (2×) and 3 (2×)
- Onset of the first vomit [6]: 2 min and 3 min (3×) and 4 min and 12 min
- The last vomit [6]: 62 min (2×) and 3 min and 27 min and 22 min and 12 min
